According to ChEMBL document CHEMBL1201862, “PubChem BioAssay data set” (2004):
Values joined by “and” are separate entries in the source; they are usually repeats but may differ in a detail not shown here. Equal values may be shown once.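 48-hour exposure; five concentrations; linearly interpolated endpoints. At the GI50, growth is halved.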 Active and inactive are the calls of the source. No stated cut-off is given here; in the data, active = GI50 up to about 1.1 µM and inactive = higher.

Tests used:
Assay in all cases: NCI tumour cell line growth inhibition, 48 h
MDA-N = test system: MDA-N
HOP-92 = test system: HOP-92
OVCAR-8 = test system: OVCAR-8
PC-3 = test system: PC-3
SK-MEL-2 = test system: SK-MEL-2
UO-31 = test system: UO-31
CCRF-CEM = test system: CCRF-CEM
OVCAR-5 = test system: OVCAR-5
SNB-19 = test system: SNB-19
SR = test system: SR
CAKI-1 = test system: CAKI-1
ACHN = test system: ACHN
A498 = test system: A498
SNB-75 = test system: SNB-75
UACC-62 = test system: UACC-62
T47D = test system: T47D
NCI/ADR-RES = test system: NCI/ADR-RES
SF-539 = test system: SF-539
MOLT-4 = test system: MOLT-4

Measured: GI50

CN(C)Cc1cc(Cl)c(O)c(CN(C)C)c1
inactive: MDA-N > 100 µM | HOP-92 > 100 µM | OVCAR-8 > 100 µM | PC-3 > 100 µM | SK-MEL-2 > 100 µM | UO-31 > 100 µM | CCRF-CEM > 100 µM | OVCAR-5 > 100 µM | SNB-19 > 100 µM | SR > 100 µM | CAKI-1 > 100 µM | ACHN > 100 µM | A498 > 100 µM | SNB-75 > 100 µM | UACC-62 > 100 µM | T47D > 100 µM | NCI/ADR-RES > 100 µM

O=c1ccn(CC2(CO)CCC2)c(=O)[nH]1
inactive: MDA-N > 100 µM | HOP-92 > 100 µM | OVCAR-8 > 100 µM | PC-3 > 100 µM | SF-539 > 100 µM | SK-MEL-2 > 100 µM | UO-31 > 100 µM | MOLT-4 > 100 µM | CCRF-CEM > 100 µM | OVCAR-5 > 100 µM | SR > 100 µM | CAKI-1 > 100 µM | ACHN > 100 µM | A498 > 100 µM | SNB-75 > 100 µM | UACC-62 > 100 µM | T47D > 100 µM | NCI/ADR-RES > 100 µM

CCOC(=O)C(NC(=O)NCc1ccc(F)cc1)C(F)(F)F (stereo not given)
inactive: MDA-N > 100 µM | OVCAR-8 > 100 µM | PC-3 > 100 µM | SF-539 > 100 µM | SK-MEL-2 > 100 µM | UO-31 > 100 µM | MOLT-4 > 10 µM | CCRF-CEM > 100 µM | OVCAR-5 > 100 µM | SNB-19 > 100 µM | SR > 100 µM | ACHN > 100 µM | A498 > 100 µM | SNB-75 > 100 µM | T47D > 100 µM | NCI/ADR-RES > 100 µM

COC(=O)c1ccccc1/C=C1\Cc2ccc3c(c2C1=O)CCCC3
inactive: MDA-N > 100 µM | OVCAR-8 > 100 µM | PC-3 > 100 µM | SF-539 > 100 µM | SK-MEL-2 > 100 µM | UO-31 > 100 µM | MOLT-4 > 100 µM | CCRF-CEM > 100 µM | OVCAR-5 > 100 µM | SNB-19 > 100 µM | SR > 100 µM | CAKI-1 > 100 µM | ACHN > 100 µM | A498 > 100 µM | SNB-75 > 100 µM | UACC-62 > 100 µM | T47D > 100 µM | NCI/ADR-RES > 100 µM

Oc1cc2c3c(c1)CCCN3CCC2
inactive: MDA-N > 10 µM | HOP-92 > 10 µM | OVCAR-8 > 10 µM | PC-3 > 10 µM | SF-539 > 10 µM | SK-MEL-2 > 10 µM | MOLT-4 > 10 µM | CCRF-CEM > 10 µM | OVCAR-5 > 10 µM | SNB-19 > 10 µM | SR > 10 µM | CAKI-1 > 10 µM | ACHN > 10 µM | A498 > 10 µM | SNB-75 > 10 µM | UACC-62 > 10 µM | T47D > 10 µM | NCI/ADR-RES > 10 µM

COc1ccc(-n2c(C)nc3ccc(NC4OCC(O)C(O)C4O)cc3c2=O)cc1 (stereo not given)
inactive: MDA-N 61.9 µM and 62.4 µM | OVCAR-8 23.3 µM and 28.6 µM | PC-3 > 100 µM | SK-MEL-2 > 100 µM | UO-31 > 100 µM | MOLT-4 22.3 µM and 31.5 µM | OVCAR-5 > 100 µM | SNB-19 > 100 µM | SR 31.1 µM and 26.1 µM | ACHN 61.4 µM and 36.6 µM | A498 > 100 µM | SNB-75 > 100 µM | UACC-62 39.4 µM and 31.9 µM | T47D > 100 µM | NCI/ADR-RES 53.7 µM and 83.6 µM

O=C1c2ccccc2C(=O)N1CC1(C(=O)O)NCCS1(=O)=O (stereo not given)
inactive: MDA-N > 100 µM | HOP-92 > 100 µM | OVCAR-8 > 100 µM | PC-3 > 100 µM | SF-539 > 100 µM | SK-MEL-2 > 100 µM | UO-31 > 100 µM | MOLT-4 > 100 µM | CCRF-CEM > 100 µM | OVCAR-5 > 100 µM | SNB-19 > 100 µM | SR > 100 µM | CAKI-1 > 100 µM | ACHN > 100 µM | A498 > 100 µM | UACC-62 > 100 µM | T47D > 100 µM | NCI/ADR-RES > 100 µM

CN(C)c1ccc(C2CC(=O)CC(c3ccc(N(C)C)cc3)C23C(=O)NC(=S)NC3=O)cc1 (stereo not given)
inactive: MDA-N > 100 µM | HOP-92 > 100 µM | PC-3 > 100 µM | SF-539 > 100 µM | SK-MEL-2 38.8 µM | UO-31 > 100 µM | MOLT-4 > 100 µM | CCRF-CEM > 100 µM | OVCAR-5 > 100 µM | SNB-19 71.3 µM | SR > 100 µM | CAKI-1 > 100 µM | ACHN > 100 µM | A498 > 100 µM | SNB-75 14.6 µM | UACC-62 > 100 µM | T47D > 100 µM | NCI/ADR-RES > 100 µM

O=CCOCc1cc2c(cc1Br)OCO2
inactive: MDA-N 37.2 µM | HOP-92 43.9 µM | OVCAR-8 20.7 µM | PC-3 21.4 µM | SF-539 25.2 µM | UO-31 21.1 µM | MOLT-4 30.1 µM | CCRF-CEM 9.93 µM | OVCAR-5 > 100 µM | SR 24.7 µM | CAKI-1 19.9 µM | ACHN 23.1 µM | A498 > 100 µM | SNB-75 48.9 µM | UACC-62 43.4 µM | T47D 21 µM | NCI/ADR-RES 21 µM

N#Cc1sc2c(c1OC(=O)c1ccc(Cl)cc1)c(=O)n(-c1ccccc1)c(=S)n2-c1ccccc1
inactive: MDA-N 20.3 µM | HOP-92 18.5 µM | OVCAR-8 18.1 µM | PC-3 21.7 µM | SF-539 20.8 µM | MOLT-4 42.3 µM | CCRF-CEM 4.37 µM | OVCAR-5 25.8 µM | SNB-19 21.9 µM | SR 19.1 µM | CAKI-1 27.3 µM | ACHN 28.4 µM | A498 21.5 µM | SNB-75 40.8 µM | UACC-62 18.2 µM | T47D 24.4 µM | NCI/ADR-RES 23.3 µM

Cc1ccc(S(=O)(=O)N/N=C2\C=C[C@]3(CC2)C(=O)N(C)c2ccccc23)cc1
inactive: MDA-N > 100 µM | HOP-92 > 100 µM | OVCAR-8 > 100 µM | PC-3 > 100 µM | SK-MEL-2 > 100 µM | UO-31 > 100 µM | MOLT-4 > 100 µM | CCRF-CEM > 100 µM | OVCAR-5 > 100 µM | SNB-19 > 100 µM | SR > 100 µM | CAKI-1 > 100 µM | ACHN > 100 µM | A498 > 100 µM | SNB-75 > 100 µM | UACC-62 > 100 µM | T47D > 100 µM | NCI/ADR-RES > 100 µM
